# Assay results as given in EP0255485A2, “Transdermal compositions” (priority 1986, dated 1988).
# Structures can show the parent of a compound that is named as a salt. Where two headings read alike, the source gives them in different places.
# What was measured:
# [1] = for P Px*: Px = permeability coefficient of the drug from propylene glycol solution; for Flux^+: expressed in terms of procaterol hydrochloride, concentration could not be measured
# in vitro = details: mouse
# [2] = Extrapolated delivery through human skin, assuming 1/5 the permeability of mouse skin; format: in vitro ADME
# Description: The permeation of the compounds from the mixture of propylene glycol triacetin was negligible. The concentration of each analgesic can be increased to 3% or 4% in the donor solution and corresponding increases in flux can be expected. […] A usual dose for oxymorphone and hydromorphone is about 6 to 10 mg per day in humans.
# Assuming the permeability of human skin to be 1/5 that of mouse skin, a daily flux of 0.68 mg can be achieved in man. The maximum daily dose in man is approximated to be 0.2 mg.
# [3] = Vehicle LA:TA:PG 20:50:30, Conc'n. 21.57 mg/ml
# [4] = LA:PG:TA 5:30:65, 0.5 wt % analgesic, Conc. 5.5 mg/ml
# [5] = LA:PG:TA 10:30:60, 0.5 wt % analgesic, Conc. 5.4 mg/ml
# [6] = LA:PG:TA 20:30:50, 0.5 wt % analgesic, Conc. 5.3 mg/ml
structure (smiles),measurement,setting,value
CCC(NC(C)C)C(O)c1ccc(O)c2[nH]c(=O)ccc12 (stereo not drawn) [Procaterol Hydrochloride],Lag Time,"[1]; Solvent System LA:PG:TA 20:30:50, approximate concentration 5 mg/ml",4.0 h
same,Flux,"[1]; Solvent System LA:PG:TA 20:30:50, approximate concentration 5 mg/ml, Hydrochloride",14 ug/cm^2/h
same,Flux,"[1]; Solvent System LA:PG:TA 20:30:50, approximate concentration 5 mg/ml, listed as procaterol hydrochloride, Hydrochloride",about 14 ug/cm^2/h
same,flux value,[1]; formulation containing LA:PG:TA (20:30:50),3.36 mg/day/10 cm²
same,Papp,"in vitro; P, Solvent System LA:PG:TA 20:30:50, approximate concentration 5 mg/ml",0.77 ×10⁻⁶ cm/s
same,daily flux in man,[2],0.68 mg
CC1CC(=O)NN=C1c1ccc(-n2ccnc2)cc1 (stereo not drawn) [Compound I Base],Lag Time,"[1]; 0 % Linoleic Acid in propylene glycol, Conc'n. 26.38 mg/ml",6.2 h
same,Flux,"[1]; 0 % Linoleic Acid in propylene glycol, Conc'n. 26.38 mg/ml, expressed as hydrochloride salt",0.4 ug/cm^2/h
same,P Px*,[1]; 0 % Linoleic Acid in propylene glycol,1
same,Lag Time,"[1]; 10 % Linoleic Acid in propylene glycol, Conc'n. 43 mg/ml",1.75 h
same,Flux,"[1]; 10 % Linoleic Acid in propylene glycol, Conc'n. 43 mg/ml, expressed as hydrochloride salt",492 ug/cm^2/h
same,P Px*,[1]; 10 % Linoleic Acid in propylene glycol,755
same,Lag Time,"[1]; 40 % Linoleic Acid in propylene glycol, Conc'n. 43 mg/ml",1.45 h
same,Flux,"[1]; 40 % Linoleic Acid in propylene glycol, Conc'n. 43 mg/ml, expressed as hydrochloride salt",337.3 ug/cm^2/h
same,P Px*,[1]; 40 % Linoleic Acid in propylene glycol,517
same,Lag Time,"[1]; 80 % Linoleic Acid in propylene glycol, Conc'n. 43 mg/ml",1.29 h
same,Flux,"[1]; 80 % Linoleic Acid in propylene glycol, Conc'n. 43 mg/ml, expressed as hydrochloride salt",148.5 ug/cm^2/h
same,P Px*,[1]; 80 % Linoleic Acid in propylene glycol,227
same,Lag Time,"[1]; 100 % Linoleic Acid, Conc'n. 31.5 mg/ml",5.35 h
same,Flux,"[1]; 100 % Linoleic Acid, Conc'n. 31.5 mg/ml, expressed as hydrochloride salt",24.5 ug/cm^2/h
same,P Px*,[1]; 100 % Linoleic Acid,51
same,Flux,[1]; [3],130.14 ug/cm^2/h
same,Lag Time,[1]; [3],1.91 h
same,P Px*,[1]; Vehicle LA:TA:PG 20:50:30,400
same,Flux,"[1]; Vehicle LA:TG 20:80 (TG = tetraglycol), Conc'n. 20.09 mg/ml",186.69 ug/cm^2/h
same,Lag Time,"[1]; Vehicle LA:TG 20:80, Conc'n. 20.09 mg/ml",5.58 h
same,P Px*,[1]; Vehicle LA:TG 20:80,614
same,Papp,"in vitro; Permeability Coefficient (P), 0 % Linoleic Acid in propylene glycol, Conc'n. 26.38 mg/ml",0.0042 ×10⁻⁶ cm/s
same,Papp,"in vitro; Permeability Coefficient (P), 10 % Linoleic Acid in propylene glycol, Conc'n. 43 mg/ml",3.18 ×10⁻⁶ cm/s
same,Papp,"in vitro; Permeability Coefficient (P), 40 % Linoleic Acid in propylene glycol, Conc'n. 43 mg/ml",2.18 ×10⁻⁶ cm/s
same,Papp,"in vitro; Permeability Coefficient (P), 80 % Linoleic Acid in propylene glycol, Conc'n. 43 mg/ml",0.96 ×10⁻⁶ cm/s
same,Papp,"in vitro; Permeability Coefficient (P), 100 % Linoleic Acid, Conc'n. 31.5 mg/ml",0.22 ×10⁻⁶ cm/s
same,Papp,"in vitro; Permeability Coefficient (P), Vehicle LA:TA:PG 20:50:30, Conc'n. 21.57 mg/ml",1.68 ×10⁻⁶ cm/s
same,Papp,"in vitro; Permeability Coefficient (P), Vehicle LA:TG 20:80, Conc'n. 20.09 mg/ml",2.58 ×10⁻⁶ cm/s
same,Papp,in vitro; permeability coefficient,7.6 ×10⁻⁶ cm/s
CCC(NC(C)C)C(O)c1ccc(O)c2[nH]c(=O)ccc12 (stereo not drawn) [Procaterol],Lag Time,[1]; Ratio of LA:TA:PG 5:85:10,5.5 h
same,Flux^+,[1]; Ratio of LA:TA:PG 5:85:10,23.1 ug/cm^2/h
same,Lag Time,[1]; Ratio of LA:TA:PG 10:80:10,4.8 h
same,Flux^+,[1]; Ratio of LA:TA:PG 10:80:10,44.2 ug/cm^2/h
same,Lag Time,[1]; Ratio of LA:TA:PG 15:75:10,4.05 h
same,Flux^+,[1]; Ratio of LA:TA:PG 15:75:10,53.2 ug/cm^2/h
same,Lag Time,[1]; Ratio of LA:TA:PG 20:50:30,4.4 h
same,Flux^+,[1]; Ratio of LA:TA:PG 20:50:30,56.3 ug/cm^2/h
same,Lag Time,[1]; Ratio of LA:TA:PG 20:75:5,4.8 h
same,Flux^+,[1]; Ratio of LA:TA:PG 20:75:5,33.9 ug/cm^2/h
same,Lag Time,"[1]; Vehicle Ethyl Linoleate:PG:TA 10:5:85, Drug Conc. 0.855 mg/ml",6 h
same,Flux,"[1]; Vehicle Ethyl Linoleate:PG:TA 10:5:85, Drug Conc. 0.855 mg/ml, expressed as procaterol hydrochloride",9.60 ug/cm^2/h
same,Lag Time,"[1]; Vehicle Ethyl Linoleate:TG 10:90, Drug Conc. 12.29 mg/ml",8 h
same,Flux,"[1]; Vehicle Ethyl Linoleate:TG 10:90, Drug Conc. 12.29 mg/ml, expressed as procaterol hydrochloride",36.27 ug/cm^2/h
same,Lag Time,"[1]; Vehicle LA:TA:PG 20:50:30, Procaterol Conc. 40 mg/ml",1.26 h
same,Flux,"[1]; Vehicle LA:TA:PG 20:50:30, Procaterol Conc. 40 mg/ml, expressed as hydrochloride salt",158.6 ug/cm^2/h
same,Lag Time,"[1]; Vehicle LA:TEC:PG 10:70:20, Drug Conc. 23.03 mg/ml",14.7 h
same,Flux*,"[1]; Vehicle LA:TEC:PG 10:70:20, Drug Conc. 23.03 mg/ml, expressed as hydrochloride salt",33.5 ug/cm^2/h
same,Lag Time,"[1]; Vehicle LA:TEC:PG 10:80:10, Drug Conc. 16.9 mg/ml",14.7 h
same,Flux*,"[1]; Vehicle LA:TEC:PG 10:80:10, Drug Conc. 16.9 mg/ml, expressed as hydrochloride salt",32.0 ug/cm^2/h
same,Lag Time,"[1]; Vehicle LA:TEC:PG 20:50:30, Drug Conc. 4.32 mg/ml",11.2 h
same,Flux*,"[1]; Vehicle LA:TEC:PG 20:50:30, Drug Conc. 4.32 mg/ml, expressed as hydrochloride salt",8.5 ug/cm^2/h
same,Lag Time,"[1]; Vehicle LA:TEC:PG 20:50:30, Drug Conc. 44.7 mg/ml",7.3 h
same,Flux*,"[1]; Vehicle LA:TEC:PG 20:50:30, Drug Conc. 44.7 mg/ml, expressed as hydrochloride salt",65.8 ug/cm^2/h
same,Lag Time,"[1]; Vehicle LA:TEC:PG 20:60:20, Drug Conc. 19.35 mg/ml",4.9 h
same,Flux*,"[1]; Vehicle LA:TEC:PG 20:60:20, Drug Conc. 19.35 mg/ml, expressed as hydrochloride salt",46.0 ug/cm^2/h
same,Flux,"[1]; Vehicle LNA:PG:TA 20:15:65 (LNA = Linolenic Acid), Drug Conc. 8.15 mg/ml, expressed as procaterol hydrochloride",76.27 ug/cm^2/h
same,Lag Time,"[1]; Vehicle LNA:PG:TA 20:15:65, Drug Conc. 8.15 mg/ml",2 h
same,Lag Time,"[1]; Vehicle Oleic Acid:PG:TA 20:30:50, Drug Conc. 15.89 mg/ml",1.8 h
same,Flux,"[1]; Vehicle Oleic Acid:PG:TA 20:30:50, Drug Conc. 15.89 mg/ml, expressed as procaterol hydrochloride",171.76 ug/cm^2/h
same,Papp,"in vitro; P, Vehicle Ethyl Linoleate:PG:TA 10:5:85, Drug Conc. 0.855 mg/ml",3.12 ×10⁻⁶ cm/s
same,Papp,"in vitro; P, Vehicle Ethyl Linoleate:TG 10:90, Drug Conc. 12.29 mg/ml",0.82 ×10⁻⁶ cm/s
same,Papp,"in vitro; P, Vehicle LA:TA:PG 20:50:30, Procaterol Conc. 40 mg/ml",1.1 ×10⁻⁶ cm/s
same,Papp,"in vitro; P, Vehicle LA:TEC:PG 10:70:20, Drug Conc. 23.03 mg/ml",0.404 ×10⁻⁶ cm/s
same,Papp,"in vitro; P, Vehicle LA:TEC:PG 10:80:10, Drug Conc. 16.9 mg/ml",0.526 ×10⁻⁶ cm/s
same,Papp,"in vitro; P, Vehicle LA:TEC:PG 20:50:30, Drug Conc. 4.32 mg/ml",0.547 ×10⁻⁶ cm/s
same,Papp,"in vitro; P, Vehicle LA:TEC:PG 20:50:30, Drug Conc. 44.7 mg/ml",0.41 ×10⁻⁶ cm/s
same,Papp,"in vitro; P, Vehicle LA:TEC:PG 20:60:20, Drug Conc. 19.35 mg/ml",0.66 ×10⁻⁶ cm/s
same,Papp,"in vitro; P, Vehicle LNA:PG:TA 20:15:65, Drug Conc. 8.15 mg/ml",2.6 ×10⁻⁶ cm/s
same,Papp,"in vitro; P, Vehicle Oleic Acid:PG:TA 20:30:50, Drug Conc. 15.89 mg/ml",3 ×10⁻⁶ cm/s
"CN1CC[C@]23c4c5ccc(O)c4O[C@H]2C(=O)CC[C@@]3(O)[C@H]1C5 [OX, Oxymorphone]",Flux,[1]; [4],40.0 ug/cm^2/hr
same,Lag Time,[1]; [4],7.6 h
same,Flux,[1]; [5],51.5 ug/cm^2/hr
same,Lag Time,[1]; [5],4.1 h
same,Flux,[1]; [6],66.6 ug/cm^2/hr
same,Lag Time,[1]; [6],3.5 h
same,delivery from a 10 cm² patch through hairless mouse skin,"[1]; loading concentration of 0.5%, equivalent of flux 66.6 ug/cm²/hr",about 16 mg/day
same,Papp,"in vitro; PX10^6, LA:PG:TA 5:30:65, 0.5 wt % analgesic, Conc. 5.5 mg/ml",2 ×10⁻⁶ cm/s
same,Papp,"in vitro; PX10^6, LA:PG:TA 10:30:60, 0.5 wt % analgesic, Conc. 5.4 mg/ml",2.7 ×10⁻⁶ cm/s
same,Papp,"in vitro; PX10^6, LA:PG:TA 20:30:50, 0.5 wt % analgesic, Conc. 5.3 mg/ml",3.5 ×10⁻⁶ cm/s
same,delivered from a 10 cm² patch in humans,"[2]; loading concentration increased to 2%, four-fold increase in flux expected",about 12.8 mg/day
same,delivery from a 10 cm² patch through human skin,"[2]; loading concentration of 0.5%, assuming 1/5 the permeability",about 3.2 mg/day
